In patent US20070274916A1, “Method for Identifying Compounds that Affect Expression of Tryptophan Hydroxylase Isoform 2” (priority 2003, published 2007):
“Also recorded” adds a separate entry of the source.

Key:
Format in all cases: in vivo, mouse
[1] = Plasma corticosterone in male BKTO mice (radioimmunoassay); details: 4×5 mg pellets, equivalent of 40mg/kg/day, 14 days, FIG. 10, p=0.004
Method: (§1) Male BKTO mice (Bantin and Kingman, Hull UK) weighing 25 g at the start of the experiment were briefly anaesthetized using isofluorane. Animals were implanted with 4×5 mg cortic/sterone pellets (Innovative Research of America, catalogue number G-111, 21 day release formulation) or 4× placebo pellets (catalogue number NC-111) this gave an equivalent of 40mg/kg/day of corticosterone. Pellets were implanted using a trochar supplied by the manufacturer which had been modified to allow 4 pellets to be held in one trochar, thus requiring only one incision per animal. The most ideal place to implant the pellet was where there is maximal space between the skin and the muscle such as the lateral side of the neck between the ear and the shoulder-no stitching or wound clipping was required when using this technique. Animals were returned to the home cage and allowed to recover. Fourteen days later, the animals were humanely killed and trunk blood collected into EDTA coated tubes, centrifuged for 10 minutes at 3000 rpm, and plasma removed and frozen on dry ice until ready for analysis. Brains were removed, frozen in isopentane, and stored at −80° C. until ready for analysis. […] Plasma corticosterone was analyzed using a COAT-A-COUNT rat corticosterone radioimmunoassay kit (DPC Products-Order no TKRC1). […]

[2] = tested on: TPH2 mRNA; test: TPH2 mRNA in raphe slice preparation of male BKTO mice under chronic corticosterone, real-time RT-PCR; details: 14 days, equivalent of 40mg/kg/day
Method: as §1

[3] = tested on: TPH1 mRNA; test: TPH1 mRNA levels in murine raphe slice preparation by real-time RT-PCR; details: FIG. 6
Source text: (§2) Female mice (13 to 16 wks of age) were ovariectomized (C57BL/6s from Charles River; ER Knockout animals from Taconic). Animals were fed a soy-free rodent chow and allowed a minimum of one week to recuperate from surgery and shipping. […] Approximately six hours following the fourth dose, mice were deeply anesthetized with ketamine/xylazine and brains were removed from the skull, placed ventral side up in a mouse brain block on ice, and ice-cold razor blades were inserted into the block at 1 mm intervals. The caudal extent of the hypothalamus was used as an anatomical marker for the placement of the first razor blade, and 4 blades were placed in sequential slots, caudally. The four sections were examined and the two that encompassed the greatest extent of the dorsal raphe were placed in a tube containing RNALATER (Ambion, Austin, Tex.) and placed at 4° C. overnight. Brain slices were removed from RNALATER after 24 hours and stored at −80° C. in fresh tubes.
(§3) Isolation of total RNA from mouse raphe slices for real-time PCR analysis using the TAQMAN ABI PRISMS 7700 Detection System, Applied Biosystems, Foster City, Calif. was as follows. Samples were stored in RNALATER at 4° C. overnight followed by removal of RNALATER and storage at −80° C. until isolation of the total RNA (2 slices weigh 25 to 50 mg). Slices were removed from −80° C. and placed in 1.0 mL TRIZOL Reagent in FASTPREP processing tubes. Slices were homogenized with one pass at setting 6 for 30 seconds in FASTPREP 120 homogenizer using LYSING MATRIX D tubes with bead matrix followed by 20 seconds at setting 6 after all samples had been processed. Samples were set at room temperature for 5 minutes to allow for complete dissociation of nucleoprotein complexes followed by centrifugation of the samples at 12,000×g for 5 minutes at 4° C. Homogenates were transferred to 1.5 mL; microcentrifuge tubes and 100 μL BCP (Bromo-3-chloropropane) was added. Samples were vortexed for 15 seconds and set at room temperature for 2 to 3 minutes. Samples were centrifuged at 12,000×g for 15 minutes at 4° C. The aqueous layer was removed and placed in a new RNAse-free sterile 1.5 mL microcentrifuge tube. Five μL of 5 mg/μL glycogen was added to each sample and the samples were vortexed. Five hundred μL of isopropanol was added to each sample. The samples were vortexed for 15 seconds, set at room temperature 10 minutes, followed by centrifugation at 12,000×g for 15 minutes at 4° C. Supernatants were decanted and pellets washed with 500 μL ice cold 75% ethanol. Samples were centrifuged at 12,000×g for 15 minutes at 4° C., ethanol decanted, and pellets air dried for 10 minutes. Pellets were resuspended in 30 μL prewarmed RNASECURE (60° C.), and heated at 60° C. for 10 min. Samples were stored at −80° C. until DNAse treatment and cDNA synthesis.
DNase treatment and cDNA preparation with wt mouse raphe slice total RNA for TAQMAN analysis. DNase treatment using DNA-free kit (Ambion). Five μg of the total RNA sample was aliquotted to each well of a 96 well plate. An 1× DNase I solution was added to each sample (DNase I buffer, DNase I, H2O). Reactions were mixed and incubated at 37° C. for 30 minutes. Reactions were inactivated by addition of DNase inactivation reagent beads, mixed well at room temperature for 3 minutes and centrifuged at 2,500 RPM for 1 minutes at 4° C. (25 μL reactions were run and inactivated with 1/10 volume of inactivation reagent).
Reverse Transcription. A 10 μL of the DNase I-treated total RNA was added to 40 μL of 1× reverse transcription reaction mix (DEPC treated H2O, RT buffer, MgCl2, dNTP mix, random hexamers, RNase inhibitor, and MULTISCRIBE RT) and incubated at 25° C. for 10 minutes, 48° C. for 30 minutes, and 95° C. for 5 minutes. Reverse transcription was halted by the addition of EDTA. Samples were transferred to a storage plate and stored at −20° C. […]

[4] = tested on: TPH2 mRNA; test: TPH2 mRNA levels in murine raphe slice preparation of ovariectomized female mice by real-time RT-PCR; details: prednisolone 10 mpk once daily; FIGS. 7 and 8
Source text: as §2, with “RNALATER” left out
Two TPH2 primer and probe sets were generated for use in detecting TPH2 by real-time RT-PCR. Murine TPH2 forward primers were mTPH2-514F and mTPH2-1270F, their corresponding sequences are 5′-[…]-3′ (SEQ ID NO:7; corresponding to nucleotides 514 to 535 of the nucleotide sequence encoding TPH2) and 5′-[…]-3′ (SEQ ID NO:8; corresponding to nucleotides 1270 to 1290 of the nucleotide sequence encoding TPH2), respectively. The murine TPH2 reverse primers were mTPH2-585R and mTPH2-1344R, their corresponding sequences are 5′-[…]-3′ (SEQ ID NO:9; corresponding to nucleotides 567 to 585 of the nucleotide sequence encoding TPH2) and 5′-[…]-3′ (SEQ ID NO:10; corresponding to nucleotides 1324 to 1344 of the nucleotide sequence encoding TPH2), respectively. The murine TPH2 probes were mTPH2-565T and mTPH2-1292T, their corresponding sequences are: 5′-[…]-3′ (SEQ ID NO:11; corresponding to nucleotides 539 to 565 of the nucleotide sequence encoding TPH2) and 5′-[…]-3′ (SEQ ID NO:12; corresponding to nucleotides 1292 to 1317 of the nucleotide sequence encoding TPH2), respectively. The probes were labeled at the 5′ end with FAM and the 3′ end with TAMRA.
as §3, with “RNALATER” left out, “ethanol.” for “ethanol. Samples were centrifuged at 12,000×g for 15 minutes at 4° C., ethanol decanted, and pellets air dried for 10 minutes. Pellets were resuspended in 30 μL prewarmed RNASECURE (60° C.), and heated at 60° C. for 10 min. Samples were stored at −80° C. until DNAse treatment and cDNA synthesis.”

Structure (SMILES)	plasma levels after treatment [1]	level of TPH2 mRNA in raphe slice preparation ([2]; FIG. 11, p=0.01)	level of TPH2 mRNA in raphe slice preparation ([2]; FIG. 11, p=0.01, listed as corticosterone)	effect on TPH1 mRNA levels ([3]; 10 mpk s.c., ovariectomized mice)	change of TPH1 mRNA levels in response to treatment ([3]; murine raphe slice preparations, dose not stated)	effect on TPH2 mRNA expression compared to vehicle [4]
C[C@]12C[C@H](O)[C@H]3[C@@H](CCC4=CC(=O)CC[C@@]43C)[C@@H]1CC[C@@H]2C(=O)CO [corticosterone]	significant increase	significantly reduced	significant decrease			
C[C@]12C=CC(=O)C=C1CC[C@@H]1[C@@H]2[C@@H](O)C[C@@]2(C)[C@H]1CC[C@]2(O)C(=O)CO [prednisolone]				neither 3 mpk of dexamethasone nor 10 mpk prednisolone had any effect; also recorded: no effect	no detectable change	decrease; also recorded: significant reduction
